Experiments:
HDAC-1 = target: T1, HDAC-1 (Homo sapiens, UniProt Q13547); assay: HDAC inhibition assay (purified GST-HDAC protein); type: biochemical
T1 construct: made in house; host or cells: Sf9 or Sf21 insect cells (baculovirus, donor vector pFB-GSTX3)
Excerpt: The baculovirus donor vector pFB-GSTX3 was used to generate a recombinant baculovirus that can express the HDAC polypeptide. Transfer vectors containing the HDAC coding region were transfected into the DH10Bac cell line (GIBCO) and plated on selective agar plates. Colonies without insertion of the fusion sequence into the viral genome (carried by the bacteria) were blue. Single, white colonies were picked and viral DNAs (bacmid) were isolated from the bacteria by standard plasmid purification procedures. Sf9 cells or Sf21 (American Type Culture Collection) cells were then transfected in […] flasks with the viral DNA using Cellfectin reagent.
Virus-containing media was collected from the transfected cell culture and used for infection to increase its titer. Virus-containing media obtained after two rounds of infection was used for large-scale protein expression. For large-scale protein expression 100 cm^2 round tissue culture plates were seeded with 5×10^7 cells/plate and infected with 1 mL of virus-containing media (at an approximately MOI of 5). After 3 days, the cells were scraped off the plate and centrifuged at 500 rpm for 5 minutes. Cell pellets from 10-20, 100 cm^2 plates, were re-suspended in 50 mL of ice-cold lysis buffer (25 mM tris-HCl, pH 7.5, 2 mM EDTA, 1% NP-40, 1 mM DTT, 1 mM P MSF). The cells were stirred on ice for 15 minutes and then centrifuged at 5,000 rpms for 20 minutes.
The centrifuged cell lysate was loaded onto a 2 mL glutathione-sepharose column (Pharmacia) and was washed thrice with 10 mL of 25 mM tris-HCl, pH 7.5, 2 mM EDTA, 1 mM DTT, 200 mM NaCl. The GST-tagged proteins were then eluted by 10 applications (1 mL each) of 25 mM tris-HCl, pH 7.5, 10 mM reduced-glutathione, 100 mM NaCl, 1 mM DTT, 10% glycerol and stored at −70° C.
HDAC assays with purified GST-HDAC protein were carried out in a final volume of 30 μL containing 15 ng of GST-HDAC protein, 20 mM tris-HCl, pH 7.5, 1 mM MnCl2, 10 mM MgCl2, 1 mM DTT, 3 μg/mL poly(Glu,Tyr) 4:1, 1% DMSO, 2.0 μM ATP (γ-[^33P]-ATP 0.1 μCi). The activity was assayed in the presence or absence of inhibitors. The assay was carried out in 96-well plates at ambient temperature for 15 minutes under conditions described below and terminated by the addition of 20 μL of 125 mM EDTA. Subsequently, 40 μL of the reaction mixture were transferred onto EMMOBILON-PVDF membrane (Millipore) previously soaked for 5 minutes with methanol, rinsed with water, then soaked for 5 minutes with 0.5% H3PO4 and mounted on vacuum manifold with disconnected vacuum source. After spotting all samples, a vacuum was connected and each well rinsed with 200 μL 0.5% H3PO4. Membranes were removed and washed four times on a shaker with 1.0% H3PO4, once with ethanol. Membranes were counted after drying at ambient temperature, mounting in Packard TopCount 96-well frame, and addition of 10 μL/well of MICROSCINT™ (Packard). IC50 values were calculated by linear regression analysis of the percentage inhibition of each compound in duplicate, at 4 concentrations (usually 0.01, 0.1, 1 and 10 μM).
• Input: 3×4 μL stopped assay on IMMOBILON membrane, not washed • Background (3 wells): assay with H2O instead of enzyme • Positive control (4 wells): 3% DMSO instead of compound • Bath control (1 well): no reaction mix
IC50 values were calculated by logarithmic regression analysis of the percentage inhibition of each compound at 4 concentrations (usually 3- or 10-fold dilution series starting at 10 μM). In each experiment, the actual inhibition by reference compound was used for normalization of IC50 values to the basis of an average value of the reference inhibitor: Normalized IC50=measured IC50 average ref IC50/measured ref IC50
Example: Reference inhibitor in experiment 0.4 μM, average 0.3 μM, Test compound in experiment 1.0 μM, normalization: 0.3/0.4=0.75 μM
For example, known HDAC inhibitors or a synthetic derivative thereof may be used as reference compounds.

HCT116 = HCT116 IC50; type: cell-based; conditions: Homo sapiens, HCT-116

T1 sequence (Q13547 whole entry, species assumed): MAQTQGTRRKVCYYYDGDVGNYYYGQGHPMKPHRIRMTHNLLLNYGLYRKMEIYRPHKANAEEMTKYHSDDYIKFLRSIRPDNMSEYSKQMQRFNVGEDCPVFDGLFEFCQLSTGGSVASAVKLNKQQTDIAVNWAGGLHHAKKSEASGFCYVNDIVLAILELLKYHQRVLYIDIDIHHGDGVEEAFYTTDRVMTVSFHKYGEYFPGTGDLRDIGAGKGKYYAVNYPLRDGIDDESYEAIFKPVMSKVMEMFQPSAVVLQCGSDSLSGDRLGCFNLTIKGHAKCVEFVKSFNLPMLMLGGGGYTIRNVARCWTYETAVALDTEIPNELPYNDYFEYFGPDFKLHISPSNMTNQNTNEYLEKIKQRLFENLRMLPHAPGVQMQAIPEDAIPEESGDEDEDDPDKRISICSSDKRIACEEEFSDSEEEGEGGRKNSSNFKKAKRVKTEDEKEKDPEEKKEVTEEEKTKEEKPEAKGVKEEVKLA

O=C(/C=C/c1ccc(C2CCCN2CCc2c[nH]c3ccccc23)cc1)NO (centres unmarked) [Compound 3, (E)-N-Hydroxy-3-(4-{1-[2-(1H-indol-3-yl)-ethyl]-pyrrolidin-2-yl}-phenyl)-acrylamide]
IC50 (HDAC-1): 1 nM | IC50 (HCT116): 1.2 nM

CCn1nc(C)c(CCN2CCC[C@H]2c2ccc(/C=C/C(=O)NO)cc2)c1C [Compound 96, (E)-3-(4-{(S)-1-[2-(1-Ethyl-3,5-dimethyl-1H-pyrazol-4-yl)-ethyl]-pyrrolidin-2-yl}-phenyl)-N-hydroxy-acrylamide]
IC50 (HDAC-1): 1.7 nM | IC50 (HCT116): 2 nM

CN1CCN(CCc2cnn3ccccc23)C(c2ccc(/C=C/C(=O)NO)cc2)C1 (centres unmarked) [Compound 90, (E)-N-Hydroxy-3-{4-[4-methyl-1-(2-pyrazolo[1,5-a]pyridin-3-yl-ethyl)-piperazin-2-yl]-phenyl}-acrylamide]
IC50 (HDAC-1): 8 nM | IC50 (HCT116): 34 nM

O=C(/C=C/c1ccc(C2CCCN2CCc2ccccc2Cl)cc1)NO (centres unmarked) [Compound 25, (E)-3-(4-{1-[2-(2-Chloro-phenyl)-ethyl]-pyrrolidin-2-yl}-phenyl)-N-hydroxy-acrylamide]
IC50 (HDAC-1): 5 nM | IC50 (HCT116): 7 nM

Cc1cc(C)n(CCN2CCC[C@H]2c2ccc(/C=C/C(=O)NO)cc2)n1 [Compound 66, (E)-3-(4-{(S)-1-[2-(3,5-Dimethyl-pyrazol-1-yl)-ethyl]-pyrrolidin-2-yl}-phenyl)-N-hydroxy-acrylamide]
IC50 (HDAC-1): 28 nM | IC50 (HCT116): 61 nM

O=C(/C=C/c1ccc([C@@H]2CCCN2CCc2cnn3ccccc23)cc1F)NO [Compound 93, (E)-3-{2-Fluoro-4-[(S)-1-(2-pyrazolo[1,5-a]pyridin-3-yl-ethyl)-pyrrolidin-2-yl]-phenyl}-N-hydroxy-acrylamide]
IC50 (HDAC-1): 1.4 nM | IC50 (HCT116): 1.1 nM

Cc1c(CC(C)(C)C)nn(CCN2CCC[C@H]2c2ccc(/C=C/C(=O)NO)cc2)c1O [Compound 68, (E)-3-[4-((S)-1-{2-[3-(2,2-Dimethyl-propyl)-5-hydroxy-4-methyl-pyrazol-1-yl]-ethyl}-pyrrolidin-2-yl)-phenyl]-N-hydroxy-acrylamide]
IC50 (HDAC-1): 40 nM | IC50 (HCT116): 160 nM

CC(C)CCN1CCCC1c1ccc(/C=C/C(=O)NO)cc1 (centres unmarked) [Compound 36, (E)-N-Hydroxy-3-{4-[1-(3-methyl-butyl)-pyrrolidin-2-yl]-phenyl}-acrylamide]
IC50 (HDAC-1): 10 nM | IC50 (HCT116): 40 nM

C[Si](C)(C)Cn1cc(CCN2CCC[C@H]2c2ccc(/C=C/C(=O)NO)cc2)nn1 [Compound 77, (E)-N-Hydroxy-3-(4-{(S)-1-[2-(1-trimethylsilanylmethyl-1H-[1,2,3]triazol-4-yl)-ethyl]-pyrrolidin-2-yl}-phenyl)-acrylamide]
IC50 (HDAC-1): 25 nM | IC50 (HCT116): 110 nM

O=C(CCc1ccc([C@H]2CCCN2CCc2cnn3ccccc23)cc1)NO [Compound 121, N-Hydroxy-3-{4-[(R)-1-(2-pyrazolo[1,5-a]pyridin-3-yl-ethyl)-pyrrolidin-2-yl]-phenyl}-propionamide]
IC50 (HDAC-1): 31 nM | IC50 (HCT116): 180 nM

Cc1[nH]c2ccccc2c1CCN1CCN(C(=O)OC(C)(C)C)CC1c1ccc(/C=C/C(=O)NO)cc1 (centres unmarked) [Compound 87, 3-[4-((E)-2-Hydroxycarbamoyl-vinyl)-phenyl]-4-[2-(2-methyl-1H-indol-3-yl)-ethyl]-piperazine-1-carboxylic acid tert-butyl ester]
IC50 (HDAC-1): 35 nM | IC50 (HCT116): 58 nM

CC(C)(O)c1nn2ccccc2c1CCN1CCC[C@H]1c1ccc(CCC(=O)NO)cc1 [Compound 113, N-Hydroxy-3-[4-((S)-1-{2-[2-(1-hydroxy-1-methyl-ethyl)-pyrazolo[1,5-a]pyridin-3-yl]-ethyl}-pyrrolidin-2-yl)-phenyl]-propionamide]
IC50 (HDAC-1): 75 nM

Cc1nn2ccccc2c1CCN1CCC[C@H]1c1ccc(/C=C/C(=O)NO)cc1 [Compound 44, (E)-N-Hydroxy-3-(4-{(S)-1-[2-(2-methyl-pyrazolo[1,5-a]pyridin-3-yl)-ethyl]-pyrrolidin-2-yl}-phenyl)-acrylamide]
IC50 (HDAC-1): 0.6 nM | IC50 (HCT116): 0.38 nM

O=C(/C=C/c1ccc(C2CCCN2CCc2ccc([N+](=O)[O-])cc2)cc1)NO (centres unmarked) [Compound 24, (E)-N-Hydroxy-3-(4-{1-[2-(4-nitro-phenyl)-ethyl]-pyrrolidin-2-yl}-phenyl)-acrylamide]
IC50 (HDAC-1): 8 nM | IC50 (HCT116): 43 nM

O=C(/C=C/c1ccc([C@@H]2CCCN2CCc2cn(Cc3ccccc3)nn2)cc1)NO [Compound 78, (E)-3-(4-{(S)-1-[2-(1-Benzyl-1H-[1,2,3]triazol-4-yl)-ethyl]-pyrrolidin-2-yl}-phenyl)-N-hydroxy-acrylamide]
IC50 (HDAC-1): 22 nM | IC50 (HCT116): 120 nM

Cc1ccn(CCN2CCC[C@H]2c2ccc(/C=C/C(=O)NO)cc2)n1 [Compound 71, (E)-N-Hydroxy-3-(4-{(S)-1-[2-(3-methyl-pyrazol-1-yl)-ethyl]-pyrrolidin-2-yl}-phenyl)-acrylamide]
IC50 (HDAC-1): 55 nM | IC50 (HCT116): 110 nM

Cc1oc(-c2ccccc2)nc1CCN1CCC[C@H]1c1ccc(/C=C/C(=O)NO)cc1 [Compound 57, (E)-N-Hydroxy-3-(4-{(S)-1-[2-(5-methyl-2-phenyl-oxazol-4-yl)-ethyl]-pyrrolidin-2-yl}-phenyl)-acrylamide]
IC50 (HDAC-1): 1.4 nM | IC50 (HCT116): 1 nM

O=C(/C=C/c1ccc(C2CCCN2CCn2ccc3ccccc32)cc1)NO (centres unmarked) [Compound 5, (E)-N-Hydroxy-3-{4-[1-(2-indol-1-yl-ethyl)-pyrrolidin-2-yl]-phenyl}-acrylamide]
IC50 (HDAC-1): 6 nM | IC50 (HCT116): 10 nM

O=C(/C=C/c1ccc([C@@H]2CCCN2CCc2c(-c3cnccn3)nn3ccccc23)cc1)NO [Compound 49, (E)-N-Hydroxy-3-(4-{(S)-1-[2-(2-pyrazin-2-yl-pyrazolo[1,5-a]pyridin-3-yl)-ethyl]-pyrrolidin-2-yl}-phenyl)-acrylamide]
IC50 (HDAC-1): 3 nM | IC50 (HCT116): 3 nM

O=C(/C=C/c1ccc(C2CCCN2CC2CCCC2)cc1)NO (centres unmarked) [Compound 40, (E)-3-[4-(1-Cyclopentylmethyl-pyrrolidin-2-yl)-phenyl]-N-hydroxy-acrylamide]
IC50 (HDAC-1): 9 nM | IC50 (HCT116): 42 nM

O=C(/C=C/c1ccc([C@@H]2CCCN2CCc2nnnn2-c2ccc([N+](=O)[O-])cc2)cc1)NO [Compound 107, (E)-N-Hydroxy-3-[4-((S)-1-{2-[1-(4-nitro-phenyl)-1H-tetrazol-5-yl]-ethyl}-pyrrolidin-2-yl)-phenyl]-acrylamide]
IC50 (HDAC-1): 170 nM | IC50 (HCT116): 540 nM

Cc1n[nH]c(C)c1CCN1CCC[C@@H]1c1ccc(/C=C/C(=O)NO)cc1 [Compound 117, (E)-3-(4-{(R)-1-[2-(3,5-Dimethyl-1H-pyrazol-4-yl)-ethyl]-pyrrolidin-2-yl}-phenyl)-N-hydroxy-acrylamide]
IC50 (HDAC-1): 12 nM

Cc1n[nH]c(C)c1CCN1CCC[C@H]1c1ccc(CCC(=O)NO)cc1 [Compound 119, 3-(4-{(S)-1-[2-(3,5-Dimethyl-1H-pyrazol-4-yl)-ethyl]-pyrrolidin-2-yl}-phenyl)-N-hydroxy-propionamide]
IC50 (HDAC-1): 155 nM

Cc1nn(CC2CCOCC2)c(C)c1CCN1CCC[C@H]1c1ccc(/C=C/C(=O)NO)cc1 [Compound 109, (E)-3-[4-((S)-1-{2-[3,5-Dimethyl-1-(tetrahydro-pyran-4-ylmethyl)-1H-pyrazol-4-yl]-ethyl}-pyrrolidin-2-yl)-phenyl]-N-hydroxy-acrylamide]
IC50 (HDAC-1): 3.2 nM

From patent US8349883B2, “Hydroxamate-based inhibitors of deacetylases B” (Novartis AG, priority 2008, dated 2013)
